Test results as given in PubChem BioAssay (NCI).
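Each compound was tested at five concentrations against cells in 96-well plates for 48 hours. GI50 = concentration required for 50% inhibition of growth. Definition used: TGI = concentration required for complete inhibition of growth.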

What was measured:
Assay in all cases: NCI-60 cell line screen, 48 h
786-0 renal = test system: 786-0 renal
A498 renal = test system: A498 renal
A549 NSCLC = test system: A549 NSCLC
ACHN renal = test system: ACHN renal
BT-549 breast = test system: BT-549 breast
CAKI-1 renal = test system: CAKI-1 renal
CCRF-CEM leukemia = test system: CCRF-CEM leukemia
COLO 205 colon = test system: COLO 205 colon
HCC-2998 colon = test system: HCC-2998 colon
HCT-116 colon = test system: HCT-116 colon
HCT-15 colon = test system: HCT-15 colon
HOP-62 NSCLC = test system: HOP-62 NSCLC
HOP-92 NSCLC = test system: HOP-92 NSCLC
HT29 colon = test system: HT29 colon
IGROV1 ovarian = test system: IGROV1 ovarian
K-562 leukemia = test system: K-562 leukemia
KM12 colon = test system: KM12 colon
LOX IMVI melanoma = test system: LOX IMVI melanoma
M14 melanoma = test system: M14 melanoma
MCF7 breast = test system: MCF7 breast
MDA-MB-231 breast = test system: MDA-MB-231 breast
MDA-MB-435 = test system: MDA-MB-435
MOLT-4 leukemia = test system: MOLT-4 leukemia
NCI-H226 lung = test system: NCI-H226 lung
NCI-H23 lung = test system: NCI-H23 lung
NCI-H460 lung = test system: NCI-H460 lung
NCI-H522 lung = test system: NCI-H522 lung
NCI/ADR-RES ovarian = test system: NCI/ADR-RES ovarian
OVCAR-3 ovarian = test system: OVCAR-3 ovarian
OVCAR-4 ovarian = test system: OVCAR-4 ovarian
OVCAR-5 ovarian = test system: OVCAR-5 ovarian
OVCAR-8 ovarian = test system: OVCAR-8 ovarian
PC-3 prostate = test system: PC-3 prostate
RPMI-8226 leukemia = test system: RPMI-8226 leukemia
RXF 393 renal = test system: RXF 393 renal
SF-268 CNS = test system: SF-268 CNS
SF-295 CNS = test system: SF-295 CNS
SF-539 CNS = test system: SF-539 CNS
SK-MEL-2 melanoma = test system: SK-MEL-2 melanoma
SK-MEL-28 melanoma = test system: SK-MEL-28 melanoma
SK-MEL-5 melanoma = test system: SK-MEL-5 melanoma
SN12C renal = test system: SN12C renal
SNB-19 CNS = test system: SNB-19 CNS
SR leukemia = test system: SR leukemia
SW-620 colon = test system: SW-620 colon
T-47D breast = test system: T-47D breast
TK-10 renal = test system: TK-10 renal
U251 CNS = test system: U251 CNS
UACC-257 melanoma = test system: UACC-257 melanoma
UACC-62 melanoma = test system: UACC-62 melanoma
UO-31 renal = test system: UO-31 renal

Work on N#Cc1cc(S(=O)(=O)Nc2nc3cc(Cl)ccc3o2)c(SCc2ccccc2)cc1Cl yielded a GI50 (786-0 renal) of 15.7 µM, a TGI (786-0 renal) of 29.1 µM and a GI50 (A498 renal) of 11.5 µM. For the same compound, the TGI (A498 renal) was 23.6 µM, the GI50 (A549 NSCLC) was 14.2 µM and the TGI (A549 NSCLC) was 27.2 µM. For the same compound, the GI50 (ACHN renal) was 13.9 µM, the TGI (ACHN renal) was 26.8 µM and the GI50 (BT-549 breast) was 13.4 µM. It also gave a TGI (BT-549 breast) of 26.2 µM, a GI50 (CAKI-1 renal) of 18.5 µM and a TGI (CAKI-1 renal) of 35.1 µM. For the same compound, the GI50 (CCRF-CEM leukemia) was 14.1 µM, the TGI (CCRF-CEM leukemia) was 27.1 µM and the GI50 (COLO 205 colon) was 13 µM. For the same compound, the TGI (COLO 205 colon) was 25.7 µM, the GI50 (HCC-2998 colon) was 12.6 µM and the TGI (HCC-2998 colon) was 25.1 µM. For the same compound, the GI50 (HCT-116 colon) was 15.4 µM, the TGI (HCT-116 colon) was 28.7 µM and the GI50 (HCT-15 colon) was 16.2 µM. The TGI (HCT-15 colon) was 29.7 µM, the GI50 (HOP-62 NSCLC) was 12.3 µM and the TGI (HOP-62 NSCLC) was 24.8 µM. For the same compound, the GI50 (HOP-92 NSCLC) was 10.5 µM, the TGI (HOP-92 NSCLC) was 23.5 µM and the GI50 (HT29 colon) was 17.3 µM. The TGI (HT29 colon) was 31 µM, the GI50 (IGROV1 ovarian) was 15 µM and the TGI (IGROV1 ovarian) was 28.3 µM. For the same compound, the GI50 (K-562 leukemia) was 14.3 µM, the TGI (K-562 leukemia) was 27.4 µM and the GI50 (KM12 colon) was 14.9 µM. For the same compound, the TGI (KM12 colon) was 28.1 µM, the GI50 (LOX IMVI melanoma) was 13.5 µM and the TGI (LOX IMVI melanoma) was 26.3 µM. The GI50 (M14 melanoma) was 12.6 µM, the TGI (M14 melanoma) was 25.1 µM and the GI50 (MCF7 breast) was 17.3 µM. It also gave a TGI (MCF7 breast) of 33.3 µM, a GI50 (MDA-MB-231 breast) of 10.7 µM and a TGI (MDA-MB-231 breast) of 22.5 µM. It also gave a GI50 (MDA-MB-435) of 16.2 µM, a TGI (MDA-MB-435) of 29.7 µM and a GI50 (MOLT-4 leukemia) of 18.6 µM. It also gave a TGI (MOLT-4 leukemia) of 39 µM, a GI50 (NCI-H226 lung) of 17.8 µM and a TGI (NCI-H226 lung) of 43.4 µM. The GI50 (NCI-H23 lung) was 15.6 µM, the TGI (NCI-H23 lung) was 28.9 µM and the GI50 (NCI-H460 lung) was 15.3 µM. The TGI (NCI-H460 lung) was 28.6 µM, the GI50 (NCI-H522 lung) was 11.6 µM and the TGI (NCI-H522 lung) was 25 µM. For the same compound, the GI50 (NCI/ADR-RES ovarian) was 13.8 µM, the TGI (NCI/ADR-RES ovarian) was 26.7 µM and the GI50 (OVCAR-3 ovarian) was 13.5 µM. The TGI (OVCAR-3 ovarian) was 26.4 µM, the GI50 (OVCAR-4 ovarian) was 15.9 µM and the TGI (OVCAR-4 ovarian) was 35.1 µM. It also gave a GI50 (OVCAR-5 ovarian) of 13 µM, a TGI (OVCAR-5 ovarian) of 25.7 µM and a GI50 (OVCAR-8 ovarian) of 14.2 µM. For the same compound, the TGI (OVCAR-8 ovarian) was 27.3 µM, the GI50 (PC-3 prostate) was 15.1 µM and the TGI (PC-3 prostate) was 28.3 µM. The GI50 (RPMI-8226 leukemia) was 16.3 µM, the TGI (RPMI-8226 leukemia) was 43 µM and the GI50 (RXF 393 renal) was 12.5 µM. It also gave a TGI (RXF 393 renal) of 25 µM, a GI50 (SF-268 CNS) of 14.7 µM and a TGI (SF-268 CNS) of 32.2 µM. For the same compound, the GI50 (SF-295 CNS) was 14.5 µM, the TGI (SF-295 CNS) was 28 µM and the GI50 (SF-539 CNS) was 13.5 µM. The TGI (SF-539 CNS) was 26.4 µM, the GI50 (SK-MEL-2 melanoma) was 12.4 µM and the TGI (SK-MEL-2 melanoma) was 24.8 µM. The GI50 (SK-MEL-28 melanoma) was 12.8 µM, the TGI (SK-MEL-28 melanoma) was 25.4 µM and the GI50 (SK-MEL-5 melanoma) was 15.1 µM. The TGI (SK-MEL-5 melanoma) was 28.3 µM, the GI50 (SN12C renal) was 15.4 µM and the TGI (SN12C renal) was 29.1 µM. The GI50 (SNB-19 CNS) was 13.6 µM, the TGI (SNB-19 CNS) was 26.5 µM and the GI50 (SR leukemia) was 15.2 µM. It also gave a TGI (SR leukemia) of 28.5 µM, a GI50 (SW-620 colon) of 11.7 µM and a TGI (SW-620 colon) of 23.9 µM. The GI50 (T-47D breast) was 15.9 µM, the TGI (T-47D breast) was 30.6 µM and the GI50 (TK-10 renal) was 14.8 µM. For the same compound, the TGI (TK-10 renal) was 28 µM, the GI50 (U251 CNS) was 13.4 µM and the TGI (U251 CNS) was 26.2 µM. It also gave a GI50 (UACC-257 melanoma) of 13 µM, a TGI (UACC-257 melanoma) of 25.7 µM and a GI50 (UACC-62 melanoma) of 13.2 µM. The TGI (UACC-62 melanoma) was 25.9 µM, the GI50 (UO-31 renal) was 12.3 µM and the TGI (UO-31 renal) was 24.7 µM.
